≈ marks a conversion by molar mass, not a printed value.
The compounds below were run against T1, 20S catalytic subunit of the proteasome (multicatalytic proteinase complex) (Bos taurus, UniProt Q32KL2) (assay: 20S proteasome chymotryptic activity, fluorogenic peptide cleavage). Settings: 50 μM succinyl-leu-leu-val-tyr-7-amino-4-methyl coumarin, 15 minutes at 37° C, pH7.5.
T1 construct: was purified to homogeneity from bovine brain according to published methods; from tissue; host or cells: bovine brain
Format: biochemical, bovine
Protocol: Compounds of this invention prepared according to the method of Example 1 were tested as follows. The 20S catalytic subunit of the proteasome (also known as the multicatalytic proteinase complex) was purified to homogeneity from bovine brain according to published methods (Wilk S. and Orlowski, M, 40 842 J. Neurochem (1983)). The chymotryptic activity of the complex is measured by the increase in fluorescence following cleavage of the substrate peptide succinyl-leucine-leucine-valine-tyrosine-7-amino-4-methyl coumarin. The standard in vitro assay consists of 2 μg 20S proteasome, 0.1-100 μg/ml proteasome inhibitor in 200 μl 50 mM HEPES, containing 0.1% sodium dodecyl sulphate, pH7.5. The proteolytic reaction is initiated by the addition of 50 μM fluorogenic peptide substrate and allowed to progress for 15 minutes at 37° C. The reaction is terminated by the addition of 100 μl of 100 mM acetate buffer, pH4.0. The rate of proteolysis is directly proportional to the amount of liberated aminomethylcoumarin which is measured by fluorescent spectroscopy (EX 370 nm, EM 430 nm).

| SMILES | IC50 [µg/mL] |
| --- | --- |
| CCCCC(NC(=O)CC1CC(=O)c2ccc(OC)cc21)C(=O)NC(CC(C)C)C(N)=O (mixture of isomers) [Compound 16] | > 10 |
| COc1ccc2c(c1)C(CC(=O)NC(CC(C)C)C(=O)NC(CC(C)C)C(=O)NC13CC4CC(CC(C4)C1)C3)CC2=O (mixture of isomers) [Compound 190] | > 10 |
| COc1ccc2c(c1)C(CC(=O)NC(CO)C(O)c1ccccc1)CC2=O (stereo not drawn) [Compound 118] | > 10 |
| COc1ccc2c(c1)C(CC(=O)NC(CC(C)C)C(=O)NC(Cc1c[nH]cn1)C(N)=O)CC2=O (mixture of isomers) [Compound 4] | > 10 |
| COc1ccc2c(c1)C(CC(=O)NC(CC(C)C)C(=O)NC(CCCCN)C(N)=O)CC2=O (mixture of isomers) [Compound 138] | > 10 |
| COc1ccc2c(c1)C(CC(=O)NC(CCC(N)=O)C(=O)NC(CC(C)C)C(N)=O)CC2=O (mixture of isomers) [Compound 98] | > 10 |
| COc1ccc2c(c1)C(CC(=O)Nc1ccccc1)CC2=O (racemic) [Compound 168] | > 50 |
| COc1ccc2c(c1)C(CC(=O)NC(CC(C)C)C(=O)NCc1ccccc1)CC2=O (mixture of isomers) [Compound 198] | > 10 |
| COc1ccc2c(c1)C(CC(=O)NC(CC(C)C)C(=O)NC(C)(C)C(N)=O)CC2=O (mixture of isomers) [Compound 11] | > 10 |
| COc1ccc2c(c1)C(CC(=O)NC(CC(C)C)C(=O)NC(CC(C)C)C(=O)NC(C)C(N)=O)CC2=O (mixture of isomers) [Compound 126] | > 10 |
| COc1ccc2c(c1)C(CC(=O)NCc1ccccn1)CC2=O (stereo not drawn) [Compound 114] | > 10 |
| COc1ccc2c(c1)C(CC(=O)NC(CC(C)C)C(=O)NC(CC(C)C)C(N)=O)CC2=O (mixture of isomers) [Compound 2] | 1 |
| COc1ccc2c(c1)C(CC(=O)NC(CC(C)C)C(=O)NC(CC(C)C)C(=O)NCC(N)=O)CC2=O (mixture of isomers) [Compound 17] | > 10 |
| COc1ccc2c(c1)C(CC(=O)NC(CC(C)C)C(=O)NC(CC(C)C)C(=O)NCCO)CC2=O (mixture of isomers) [Compound 178] | > 10 |
| COc1ccc2c(c1)C(CC(=O)NC(CC(C)C)C(=O)NC(CC(C)C)C(=O)NCC(N)=O)CC2=O (mixture of isomers) [Compound 18] | 5 |
| COc1ccc2c(c1)C(CC(=O)N[C@@H](CC(C)C)C(=O)N[C@@H](C(=O)NCC(N)=O)c1ccccc1)CC2=O (stereo partly drawn) [Compound 91] | 10 (≈ 19.1 µM) |
| COc1ccc2c(c1)C(CC(=O)N1Cc3ccccc3CC1C(=O)NC(CC(C)C)C(N)=O)CC2=O (mixture of isomers) [Compound 60] | > 10 |
| COc1ccc2c(c1)C(CC(=O)NC(CC(C)C)C(=O)NCC(=O)NCC(N)=O)CC2=O (mixture of isomers) [Compound 41] | > 10 |

| SMILES | IC50 [µg/mL] |
| --- | --- |
| COc1ccc2c(c1)C(CC(=O)NC(CC(C)C)C(=O)NC(CO)C(N)=O)CC2=O (mixture of isomers) [Compound 141] | > 10 |
| COc1ccc2c(c1)C(CC(=O)NC(CC(N)=O)C(=O)NC(CC(C)C)C(N)=O)CC2=O (mixture of isomers) [Compound 96] | > 10 |
| COc1ccc2c(c1)C(CC(=O)NC(CC(C)C)C(=O)NC(CCC(=O)O)C(N)=O)CC2=O (mixture of isomers) [Compound 133] | > 10 |
| COc1ccc2c(c1)C(CC(=O)NC(CCCNC(=N)N)C(=O)NC(CC(C)C)C(N)=O)CC2=O (mixture of isomers) [Compound 93] | > 10 |
| COc1ccc2c(c1)C(CC(=O)NC(CC(C)C)C(=O)NC(C)(C)C(N)=O)CC2=O (mixture of isomers) [Compound 28] | > 10 |
| CCCCC(NC(=O)CC1CC(=O)c2ccc(OC)cc21)C(=O)NC(CC(C)C)C(N)=O (mixture of isomers) [Compound 22] | > 10 |
| COc1ccc2c(c1)C(CC(=O)NC(CC(C)C)C(=O)NC(CC(C)C)C(=O)NCc1ccncc1)CC2=O (mixture of isomers) [Compound 192] | 10 |
| COc1ccc2c(c1)C(CC(=O)NC(CC(C)C)C(=O)NC(CC(C)C)C(=O)O)CC2=O (mixture of isomers) [Compound 172] | > 10 |
| COc1ccc2c(c1)C(CC(=O)NC(CC(C)C)C(=O)NC(CC(C)C)C(=O)NC(C)(C)C(N)=O)CC2=O (mixture of isomers) [Compound 170] | > 10 |
| COc1ccc2c(c1)C(CC(=O)NC(Cc1ccccc1)C(N)=O)CC2=O (mixture of isomers) [Compound 24] | > 10 |
| COc1ccc2c(c1)C(CC(=O)NC(CC(C)C)C(=O)NC(CC(C)C)C(=O)N1CCc3ccccc3C1)CC2=O (mixture of isomers) [Compound 191] | > 10 |
| COc1ccc2c(c1)C(CC(=O)NC(CCCCN)C(=O)NC(CC(C)C)C(N)=O)CC2=O (mixture of isomers) [Compound 100] | > 10 |
| COc1ccc2c(c1)C(CC(=O)NC(CO)C(O)c1ccccc1)CC2=O (mixture of isomers) [Compound 165] | > 50 |
| COc1ccc2c(c1)C(CC(=O)N[C@@H](CC(C)C)C(=O)N[C@@H](C(=O)NCC(N)=O)C(C)C)CC2=O (stereo partly drawn) [Compound 90] | > 10 |
| COc1ccc2c(c1)C(CC(=O)N1Cc3ccccc3CC1C(=O)NC(CC(C)C)C(N)=O)CC2=O (mixture of isomers) [Compound 26] | > 10 |
| COc1ccc2c(c1)C(CC(=O)NC(CC(C)C)C(=O)NC(CC(C)C)C(=O)NCCc1ccccc1)CC2=O (mixture of isomers) [Compound 185] | > 10 |
| COc1ccc2c(c1)C(CC(=O)NC(CC(C)C)C(=O)NC(C(N)=O)c1ccccc1)CC2=O (mixture of isomers) [Compound 140] | > 10 |
| CCCC[C@@H](NC(=O)[C@H](CC(C)C)NC(=O)CC1CC(=O)c2ccc(OC)cc21)C(=O)NCC(N)=O (stereo partly drawn) [Compound 86] | > 10 |

Further lines, results first:

| IC50 [µg/mL] | SMILES |
| --- | --- |
| 5 | COc1ccc2c(c1)C(CC(=O)NC(CC(C)C)C(N)=O)CC2=O (mixture of isomers) [Compound 1] |
| > 10 | COc1ccc2c(c1)C(CC(=O)Nc1c(C)cccc1[N+](=O)[O-])CC2=O (racemic) [Compound 153] |
| > 10 | COc1ccc2c(c1)C(CC(=O)N1CCC(O)C1)CC2=O (stereo not drawn) [Compound 109] |
| > 10 | COc1ccc2c(c1)C(CC(=O)Nc1nc(O)c(C)c(O)n1)CC2=O (stereo not drawn) [Compound 145] |
| > 10 | COc1ccc2c(c1)C(CC(=O)NCc1ccccc1OC)CC2=O (stereo not drawn) [Compound 107] |
| > 10 | CCCCC(NC(=O)CC1CC(=O)c2ccc(OC)cc21)C(N)=O (mixture of isomers) [Compound 8] |
| > 10 | COc1ccc2c(c1)C(CC(=O)NC1CCc3ccccc31)CC2=O (stereo not drawn) [Compound 83] |
| > 10 | COc1ccc2c(c1)C(CC(=O)N1CCC(C)CC1)CC2=O (stereo not drawn) [Compound 108] |
| > 10 | COc1ccc2c(c1)C(CC(=O)Nc1ccc(I)cc1)CC2=O (racemic) [Compound 152] |
| > 10 | COc1ccc2c(c1)C(CC(=O)N(C(C)C)C(C)C)CC2=O (stereo not drawn) [Compound 62] |
| > 10 | COc1ccc2c(c1)C(CC(=O)N1CCc3ccccc31)CC2=O (stereo not drawn) [Compound 77] |
| > 10 | COc1ccc2c(c1)C(CC(=O)N1CCCC1C(=O)NC(CC(C)C)C(=O)NCC(N)=O)CC2=O (mixture of isomers) [Compound 49] |
| > 10 | COCCNC(=O)CC1CC(=O)c2ccc(OC)cc21 (stereo not drawn) [Compound 117] |
| > 10 | COc1ccc2c(c1)C(CC(=O)NC(C(N)=O)c1ccccc1)CC2=O (mixture of isomers) [Compound 36] |
| > 10 | COc1ccc2c(c1)C(CC(=O)Nc1cccc(I)c1)CC2=O (stereo not drawn) [Compound 82] |
| > 10 | COc1ccc2c(c1)C(CC(=O)Nc1ccc(Cl)cn1)CC2=O (racemic) [Compound 156] |
| > 10 | COc1ccc2c(c1)C(CC(=O)NC(CC(C)C)C(N)=O)CC2=O (mixture of isomers) [Compound 3] |
| > 10 | COc1ccc2c(c1)C(CC(=O)NC1CCC1)CC2=O (stereo not drawn) [Compound 69] |
| > 10 | CCCC(NC(=O)CC1CC(=O)c2ccc(OC)cc21)C(N)=O (mixture of isomers) [Compound 10] |
| > 10 | COc1ccc2c(c1)C(CC(=O)N(C)Cc1ccccc1)CC2=O (stereo not drawn) [Compound 73] |
| > 10 | COc1ccc2c(c1)C(CC(=O)N(C)CCO)CC2=O (stereo not drawn) [Compound 115] |
| 10 | COc1ccc2c(c1)C(CC(=O)N1CCCC1C(=O)NC(CC(C)C)C(N)=O)CC2=O (mixture of isomers) [Compound 31] |
| > 50 | COc1ccc(NC(=O)CC2CC(=O)c3ccc(OC)cc32)cc1 (racemic) [Compound 162] |
| > 50 | COc1ccc2c(c1)C(CC(=O)N(CCO)Cc1ccccc1)CC2=O (racemic) [Compound 166] |

From patent US5834487A, “Inhibition of 26S and 20S proteasome by indanones” (CV Therapeutics, priority 1996, dated 1998)
